# Laboratory results reported in patent publication US9593309B2, “Media for culturing, preserving, and administering regenerative cells” (InGeneron, Inc., priority 2012, dated 2017).
# Key:
# [1] = system: Sox2; experiment: Sox2 mRNA level in cultured Ad-MSCs, normalized to β-Actin; type: cell-based, canine; conditions: 5% (v/v) formulation, 6 days culture, vs other GAG formulations
# Description: (§1) Assays for cell proliferation, colony forming units (CFU), gene expression analyses, cell surface markers, and chondrogenic and osteogenic differentiation were performed. Cell growth and Colony Forming Units (CFU) were grown in monolayer on tissue culture grade plastic in alpha MEM, 20% FBS (v/v), pen/strep. Nucleated cell counts were performed by staining with Syto13 (Invitrogen) followed by hemacytometer counting under fluorescence microscopy. Gene expression analysis was performed by quantitative RT-PCR profiling, BioRad iQ. Flow Activated Cell Storing (FACS) analyses were performed at M.D. Anderson Cancer Center FACS Core Facilities, Houston, Tex. by GALLIOS Flow Cytometry Instruments (Beckman Coulter). For osteogenic and chondrogenic differentiation, cells were cultured in STEMPRO induction media (Invitrogen, Carlsbad, Calif.) for 14 days, fixed in 4% formalin, and stained with Alzarin red and Alcian Blue, respectively. Statistical analyses were performed by ANOVA.
# Canine Ad-MSCs were grown for 6 days in culture in the presence of complete growth media and the respective 5% (v/v) GAG formulations. Magnification=100×. Sox2 levels, a marker of stem cell proliferation, were measured in total RNA samples and normalized to β-Actin mRNA. Here “GAG” represents poly-sulfated glycosaminoglycan (ADEQUAN).
# [2] = system: Ad-MSCs (canine adipose SVF cells); experiment: Ad-MSC proliferation, nucleated cell counts (Syto13) of plated adipose SVF cells; type: cell-based; conditions: concentration not given
# Description: as §1, with “For osteogenic and chondrogenic differentiation, cells were cultured in STEMPRO induction media (Invitrogen, Carlsbad, Calif.) for 14 days, fixed in 4% formalin, and stained with Alzarin red and Alcian Blue, respectively. Statistical analyses were performed by ANOVA.” left out
# Media was changed at days 3 and 6. Nucleated cell counts were performed by Syto13 staining followed by hemacytometer counting under fluorescence microscopy (FIG. 1B).
# Fresh canine adipose SVF cells were plated at equal nucleated cell density and grown for 7 days in culture on tissue culture plastic in the presence of complete growth media and the respective concentrations (v/v) of GAG formulation. Nucleated cell counts were performed by Syto13 staining followed by hemacytometer counting under fluorescence microscopy. […]
substance,measurement,setting,value
hyaluronic acid [HA],Sox2 levels,[1],"qualitatively similar, but of lesser magnitude"
same,effect on cell proliferation when added to culture media,[2],"pro-mitotic, but to a lesser magnitude"
